Experimental data as given in US12012412B2, “Solid forms of pyrazolo[3,4-d]pyrimidine compounds” (Pfizer Inc., priority 2021, dated 2024).
In brackets after ≈: the same amount, converted by molar mass.

Tests used:
Format in all cases: physicochemical
[1] = Particle size of batches of Solid Form A; settings: batches of Solid Form A, milled or unmilled per batch
Excerpt: Primary particles from below 100 μm to around 500 μm in size, with soft agglomerates up to several millimeters, were observed. The D[4,3] of this material was 195 μm. This material was subsequently milled, to give far fewer large particles and an overall much smaller average primary particle size, giving a D[4,3] of 49.5 μm. See Table 8 for a comparison of particle size properties of various batches.

[2] = Mechanical properties of batches of Solid Form A; settings: lots of Solid Form A; A2 and A9 unmilled, A3 and A6/A7 milled
[3] = True density of Solid Form A; settings: lots of Solid Form A; A2 and A9 unmilled, A3 and A6/A7 milled
[4] = Solubility of Solid Form A and amorphous Compound X in various solvents at room temperature

## CC1CN(Cc2ncccn2)CC1c1nc2c(cnn2C2CCOCC2)c(=O)[nH]1 (centres unmarked) [A4]
[1]
  Particle size D[4, 3]: 24.1 μm
  Particle size D[v, 0.1]: 4.39 µm
  Particle size D[v, 0.9]: 52.5 µm

## CC1CN(Cc2ncccn2)CC1c1nc2c(cnn2C2CCOCC2)c(=O)[nH]1 (centres unmarked) [A5]
[1]
  Particle size D[4, 3]: 89.2 μm
  Particle size D[v, 0.1]: 6.86 µm
  Particle size D[v, 0.9]: 197 µm

## CC1CN(Cc2ncccn2)CC1c1nc2c(cnn2C2CCOCC2)c(=O)[nH]1 (centres unmarked) [A6/A7]
[2]
  Brittle fracture index, Rating: Low
  Brittle fracture index, Value: 0.022
  Brittle/viscoelastic bonding index (x105), Value: 5.3
  Brittle/viscoelastic bonding index, Rating: Poor
  Compression stress (MPa), Value: 56.3 MPa
  Compression stress, Rating: Moderate
  Compromised Tensile strength (MPa), Value: 0.393 MPa
  Dynamic indentation hardness (MPa), Value: 41.6 MPa
  Dynamic indentation hardness [ductility rating], Rating: Very high
  Solid fraction, Value: 0.85
  Tensile strength (MPa), Value: 0.41 MPa
  Tensile strength, Rating: Low
[3]
  True density (g/cm3), Value: 1.29 g/cm3

## CC1CN(Cc2ncccn2)CC1c1nc2c(cnn2C2CCOCC2)c(=O)[nH]1 (centres unmarked) [A6]
[1]
  Particle size D[4, 3]: 78.6 μm
  Particle size D[v, 0.1]: 5.89 µm
  Particle size D[v, 0.9]: 179 µm
[1]; listed as A7
  Particle size D[4, 3]: 85.1 μm
  Particle size D[v, 0.1]: 6.17 µm
  Particle size D[v, 0.9]: 191 µm

## CC1CN(Cc2ncccn2)CC1c1nc2c(cnn2C2CCOCC2)c(=O)[nH]1 (centres unmarked) [A8]
[1]
  Particle size D[4, 3]: 48.6 μm
  Particle size D[v, 0.1]: 3.96 µm
  Particle size D[v, 0.9]: 118 µm

## CC1CN(Cc2ncccn2)CC1c1nc2c(cnn2C2CCOCC2)c(=O)[nH]1 (centres unmarked) [A10]
[1]
  Particle size D[4, 3]: 49.5 μm
  Particle size D[v, 0.1]: 3.29 µm
  Particle size D[v, 0.9]: 129 µm

## C[C@@H]1CN(Cc2ncccn2)C[C@H]1c1nc2c(cnn2C2CCOCC2)c(=O)[nH]1 [amorphous Compound X, 6-((3S,4S)-4-methyl-1-(pyrimidin-2-ylmethyl)pyrrolidin-3-yl)-1-(tetrahydro-2H-pyran-4-yl)-1,5-dihydro-4H-pyrazolo[3,4-d]pyrimidin-4-one]
[4]; 1,2-Xylene
  Solubility (mg/ml): 19.9 mg/mL (≈ 50.3 mM)
  Solubility (mmol): 50 mmol
[4]; Acetone
  Solubility (mmol): >202 mmol
[4]; Chloroform
  Solubility (mg/ml): >92.3 mg/mL
  Solubility (mmol): >233 mmol
[4]; Dioxane
  Solubility (mg/ml): 27.9 mg/mL (≈ 70.5 mM)
  Solubility (mmol): 71 mmol
[4]; EtOAc
  Solubility (mg/ml): 20.6 mg/mL (≈ 52.1 mM)
  Solubility (mmol): 52 mmol
[4]; EtOH
  Solubility (mg/ml): >98.6 mg/mL
  Solubility (mmol): >249 mmol
[4]; Glyme (1,2-Dimethoxyethane)
  Solubility (mg/ml): >113.2 mg/mL
  Solubility (mmol): >286 mmol
[4]; H2O (Water)
  Solubility (mg/ml): 64.8 mg/mL (≈ 164 mM)
  Solubility (mmol): 164 mmol
[4]; H2O-EtOH (Water/EtOH)
  Solubility (mg/ml): >26.8 mg/mL
  Solubility (mmol): >68 mmol
[4]; H2O-MeCN (Water/MeCN)
  Solubility (mg/ml): >75.6 mg/mL
  Solubility (mmol): >191 mmol
[4]; H2O-MeOH (Water/MeOH)
  Solubility (mg/ml): >42.5 mg/mL
  Solubility (mmol): >107 mmol
[4]; H2O-acetone (Water/acetone)
  Solubility (mg/ml): >130.3 mg/mL
  Solubility (mmol): >329 mmol
[4]; Heptane
  Solubility (mg/ml): 0.7 mg/mL (≈ 1.77 mM)
  Solubility (mmol): 2 mmol
[4]; IPA
  Solubility (mg/ml): >85.9 mg/mL
  Solubility (mmol): >217 mmol
[4]; MTBE
  Solubility (mg/ml): 11.2 mg/mL (≈ 28.3 mM)
  Solubility (mmol): 28 mmol
[4]; MeCN
  Solubility (mg/ml): >117.3 mg/mL
  Solubility (mmol): >297 mmol
[4]; MeOH
  Solubility (mg/ml): >90.2 mg/mL
  Solubility (mmol): >228 mmol
[4]; Nitromethane
  Solubility (mg/ml): >70.2 mg/mL
  Solubility (mmol): >178 mmol
[4]; THF
  Solubility (mg/ml): 81.5 mg/mL (≈ 206 mM)
  Solubility (mmol): 206 mmol
[4]; Toluene
  Solubility (mg/ml): 18.3 mg/mL (≈ 46.3 mM)
  Solubility (mmol): 46 mmol
[4]; acetone, organic solvent or mixture
  solubility: > 79.7 mg/mL
